# Experimental data reported in the supplement of paper PMC4862054.
# Experiments:
# Conditions in all cases: incubation time: 72 h
# CAL-51 [1] = assay: normalised viability (% of control), CellTiter-Blue; higher = more viable cells (about 100 = DMSO control)
# Procedure: (§1)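 DSRT, CellTiter-Blue viability, 72 h incubation. Signal is normalised to DMSO and benzethonium chloride controls. Value is the normalised response at dose 7.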
# HDQ-P1 [2] = assay: as above
# Procedure: as §1
# CAL-148 [3] = assay: as above
# Procedure: as §1
# DU-4475 [4] = assay: as above
# Procedure: as §1
# CAL-85-1 [5] = assay: as above
# Procedure: as §1
# HDQ-P1 [6] = assay: normalised viability (% of control), CellTiter-Blue; higher = more viable cells (about 100 = DMSO control); remark: listed apart in the source
# Method in brief: (§2)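 Normalised viability is given for a single listed concentration of the series. In 384-well plates, breast cancer cell lines were incubated 72 h with compound, then read with CellTiter-Blue (2 h, 37 °C) at 560/590 nm. Per-plate scaling set vehicle to 100 and a positive kill control to 0, with Z'-factor quality control.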
# CAL-148 [7] = assay: as above; remark: listed apart in the source
# Method in brief: as §2
# CAL-120 = assay: drug sensitivity score (DSS), CellTiter-Glo (DSS (AUC-based score)); higher = stronger drug effect (viability inhibition or cytotoxicity); extreme values may be limits of the assay
# Method in brief: (§3)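 Each compound occupied 5 concentrations in 10-fold steps over its own 10,000-fold range in 384-well plates, into which breast cancer cell lines were seeded as 20 µl suspension. Following 72 h of incubation, CellTox Green fluorescence (485/520 nm) was measured, and CellTiter-Glo luminescence was measured after 10 min at room temperature. Plates were individually normalised to 0.1 % DMSO and a positive kill control. From the area under the fitted dose-response curve, a drug sensitivity score was calculated.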
# BT-474 = assay: as above
# Method in brief: as §3
# BT-549 = assay: as above
# Method in brief: as §3
# HCC1599 = assay: as above
# Method in brief: as §3
# MDA-MB-436 = assay: as above
# Method in brief: as §3
# MDA-MB-453 = assay: as above
# Method in brief: as §3
# MCF-10A = assay: as above
# Method in brief: as §3
# MDA-MB-231 = assay: as above
# Method in brief: as §3
# Hs578T = assay: as above
# Method in brief: as §3
# HCC1143 = assay: as above
# Method in brief: as §3
# CAL-51 [8] = assay: as above
# Method in brief: as §3
# HDQ-P1 [9] = assay: as above
# Method in brief: as §3
# HCC1937 = assay: as above
# Method in brief: as §3
# SK-BR-3 = assay: as above
# Method in brief: as §3
# CAL-148 [10] = assay: as above
# Method in brief: as §3
# MFM-223 = assay: as above
# Method in brief: as §3
# DU-4475 [11] = assay: as above
# Method in brief: as §3
# MDA-MB-468 = assay: as above
# Method in brief: as §3
# CAL-85-1 [12] = assay: as above
# Method in brief: as §3
SMILES,normalised viability (HDQ-P1 [6]; 3 nM) [%],normalised viability (CAL-148 [7]; 3 nM) [%],drug sensitivity score (CAL-120),drug sensitivity score (BT-474),drug sensitivity score (BT-549),drug sensitivity score (HCC1599),drug sensitivity score (MDA-MB-436),drug sensitivity score (MDA-MB-453),drug sensitivity score (MCF-10A),drug sensitivity score (MDA-MB-231),drug sensitivity score (Hs578T),drug sensitivity score (HCC1143),drug sensitivity score (CAL-51 [8]),drug sensitivity score (HDQ-P1 [9]),drug sensitivity score (HCC1937),drug sensitivity score (SK-BR-3),drug sensitivity score (CAL-148 [10]),drug sensitivity score (MFM-223),drug sensitivity score (DU-4475 [11]),drug sensitivity score (MDA-MB-468),further results
C=CC(=O)N1CCC[C@@H](n2nc(-c3ccc(Oc4ccccc4)cc3)c3c(N)ncnc32)C1,106,98.6,,,,,,,,,,,,,,,,,,,normalised viability (CAL-51 [1]; 100 nM): 91.9%; normalised viability (HDQ-P1 [2]; 100 nM): 111%; normalised viability (CAL-148 [3]; 100 nM): 98%; normalised viability (DU-4475 [4]; 100 nM): 92.4%; normalised viability (CAL-85-1 [5]; 100 nM): 77.3%; normalised viability (HDQ-P1 [6]; 0.3 nM): 130%; normalised viability (HDQ-P1 [6]; 10 nM): 105%; normalised viability (CAL-148 [7]; 0.3 nM): 85.8%; normalised viability (CAL-148 [7]; 10 nM): 96.3%
CC(=O)Nc1cccc(-n2c(=O)n(C3CC3)c(=O)c3c(Nc4ccc(I)cc4F)n(C)c(=O)c(C)c32)c1,,,,,,,,,,,,,,,,,,,,,normalised viability (CAL-51 [1]; 25 nM): 69%; normalised viability (HDQ-P1 [2]; 25 nM): 63.6%; normalised viability (CAL-148 [3]; 25 nM): 91.2%; normalised viability (DU-4475 [4]; 25 nM): -0.2%; normalised viability (CAL-85-1 [5]; 25 nM): 60.4%; normalised viability (HDQ-P1 [6]; 0.075 nM): 112%; normalised viability (HDQ-P1 [6]; 0.75 nM): 98.3%; normalised viability (HDQ-P1 [6]; 2.5 nM): 99.3%; normalised viability (CAL-148 [7]; 0.075 nM): 107%; normalised viability (CAL-148 [7]; 0.75 nM): 96.2%; normalised viability (CAL-148 [7]; 2.5 nM): 96.6%
CCc1cncnc1N1CCN(Cc2nc3ccc(C(F)(F)F)cc3[nH]2)CC1,116,119,0.0627,0.467,1.94,0,0,1.08,0,0,0,0,7.14,0,0,0,0,0,0,2.68,drug sensitivity score (CAL-85-1 [12]): 0; normalised viability (CAL-51 [1]; 1000 nM): 87%; normalised viability (HDQ-P1 [2]; 1000 nM): 95.9%; normalised viability (CAL-148 [3]; 1000 nM): 124%; normalised viability (DU-4475 [4]; 1000 nM): 101%; normalised viability (CAL-85-1 [5]; 1000 nM): 101%; normalised viability (HDQ-P1 [6]; 30 nM): 108%; normalised viability (HDQ-P1 [6]; 100 nM): 108%; normalised viability (CAL-148 [7]; 30 nM): 95.8%; normalised viability (CAL-148 [7]; 100 nM): 114%
Cc1cnc(NC(=O)Nc2cc(Br)c(C)cc2OC[C@@H]2CNCCO2)cn1,88.4,90,,,,,,,,,,,,,,,,,,,normalised viability (CAL-51 [1]; 100 nM): 91.2%; normalised viability (HDQ-P1 [2]; 100 nM): 110%; normalised viability (CAL-148 [3]; 100 nM): 101%; normalised viability (DU-4475 [4]; 100 nM): 109%; normalised viability (CAL-85-1 [5]; 100 nM): 85.9%; normalised viability (HDQ-P1 [6]; 0.3 nM): 104%; normalised viability (HDQ-P1 [6]; 10 nM): 68.7%; normalised viability (CAL-148 [7]; 0.3 nM): 99.2%; normalised viability (CAL-148 [7]; 10 nM): 96.3%
NCCCNCCSP(=O)(O)O [Amifostine],101,97.6,,,,,,,,,,,,,,,,,,,normalised viability (CAL-51 [1]; 1000 nM): 109%; normalised viability (HDQ-P1 [2]; 1000 nM): 89.8%; normalised viability (CAL-148 [3]; 1000 nM): 90.6%; normalised viability (DU-4475 [4]; 1000 nM): 82.7%; normalised viability (CAL-85-1 [5]; 1000 nM): 81.2%; normalised viability (HDQ-P1 [6]; 30 nM): 95.5%; normalised viability (HDQ-P1 [6]; 100 nM): 84.8%; normalised viability (CAL-148 [7]; 30 nM): 93.9%; normalised viability (CAL-148 [7]; 100 nM): 96.5%
CC[C@H](Nc1ncnc2[nH]cnc12)c1nc2cccc(F)c2c(=O)n1-c1ccccc1 [CAL-101],90,91.9,,,,,,,,,,,,,,,,,,,normalised viability (CAL-51 [1]; 1000 nM): 81.9%; normalised viability (HDQ-P1 [2]; 1000 nM): 82.4%; normalised viability (CAL-148 [3]; 1000 nM): 79.9%; normalised viability (DU-4475 [4]; 1000 nM): 87.8%; normalised viability (CAL-85-1 [5]; 1000 nM): 80.5%; normalised viability (HDQ-P1 [6]; 30 nM): 101%; normalised viability (HDQ-P1 [6]; 100 nM): 102%; normalised viability (CAL-148 [7]; 30 nM): 92.1%; normalised viability (CAL-148 [7]; 100 nM): 88.5%
O=C(O)CCCCC(CCSCc1ccccc1)SCc1ccccc1 (stereo not drawn) [CPI-613],,,0,0,0,0,0,0,0,0,0,0,0,0,0,0,0,0,0,0,drug sensitivity score (CAL-85-1 [12]): 0
O=C(/C=C/c1cccnc1)NCCCCC1CCN(C(=O)c2ccccc2)CC1 [Daporinad],,,20.9,13.4,0,29.4,8.81,26.8,23.2,14.8,26.8,22.2,0,18,21.4,0,6.26,31.4,25.2,30,drug sensitivity score (CAL-85-1 [12]): 22
O=C(/C=C/c1cccnc1)NCCCCC1CCN(C(=O)c2ccccc2)CC1 [FK-866],112,94.5,,,,,,,,,,,,,,,,,,,normalised viability (CAL-51 [1]; 100 nM): 44.3%; normalised viability (HDQ-P1 [2]; 100 nM): 48.9%; normalised viability (CAL-148 [3]; 100 nM): 53.7%; normalised viability (DU-4475 [4]; 100 nM): 6.4%; normalised viability (CAL-85-1 [5]; 100 nM): 54.6%; normalised viability (HDQ-P1 [6]; 0.3 nM): 109%; normalised viability (HDQ-P1 [6]; 10 nM): 98%; normalised viability (CAL-148 [7]; 0.3 nM): 96.4%; normalised viability (CAL-148 [7]; 10 nM): 91.4%
CC[C@H](Nc1ncnc2[nH]cnc12)c1nc2cccc(F)c2c(=O)n1-c1ccccc1 [GS-1101],,,1.34,2.65,2.49,0,3.18,0,0,1.82,0,0,0,1.93,0,0,0,0,0,2.6,drug sensitivity score (CAL-85-1 [12]): 0
